This assay deals with T1, HDAC7 (Homo sapiens, UniProt Q8WUI4).
T1 construct: endogenous in cells; host or cells: cell lysate
T1 sequence (Q8WUI4 1-952): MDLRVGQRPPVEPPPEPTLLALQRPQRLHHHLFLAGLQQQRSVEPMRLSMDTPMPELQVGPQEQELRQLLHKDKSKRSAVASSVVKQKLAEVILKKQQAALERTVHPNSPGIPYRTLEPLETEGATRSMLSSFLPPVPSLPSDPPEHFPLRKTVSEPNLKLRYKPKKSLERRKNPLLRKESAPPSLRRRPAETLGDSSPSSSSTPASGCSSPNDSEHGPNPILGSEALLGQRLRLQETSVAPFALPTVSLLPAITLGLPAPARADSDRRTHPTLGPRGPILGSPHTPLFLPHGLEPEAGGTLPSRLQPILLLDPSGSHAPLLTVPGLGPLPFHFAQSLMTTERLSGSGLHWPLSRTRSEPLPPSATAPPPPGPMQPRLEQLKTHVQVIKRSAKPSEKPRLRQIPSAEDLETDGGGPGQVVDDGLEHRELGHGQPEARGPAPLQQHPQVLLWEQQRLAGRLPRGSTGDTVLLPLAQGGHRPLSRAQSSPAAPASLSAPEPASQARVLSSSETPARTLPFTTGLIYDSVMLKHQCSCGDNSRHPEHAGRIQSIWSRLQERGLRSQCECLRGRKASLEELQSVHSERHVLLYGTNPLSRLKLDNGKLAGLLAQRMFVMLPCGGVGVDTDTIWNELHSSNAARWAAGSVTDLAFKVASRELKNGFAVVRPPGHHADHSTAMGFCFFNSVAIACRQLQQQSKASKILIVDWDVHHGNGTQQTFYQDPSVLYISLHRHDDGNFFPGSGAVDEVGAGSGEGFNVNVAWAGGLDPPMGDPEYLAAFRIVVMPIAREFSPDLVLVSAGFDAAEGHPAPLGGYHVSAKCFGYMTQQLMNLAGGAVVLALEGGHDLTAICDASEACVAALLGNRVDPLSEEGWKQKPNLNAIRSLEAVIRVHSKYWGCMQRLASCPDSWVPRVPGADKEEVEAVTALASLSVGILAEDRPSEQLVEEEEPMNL
Nature of the assay: Chemoproteomic competition pulldown assay with iC. Format: binding. The protocol:
To identify proteins directly bound by lipoic acid, we employed a chemoproteomic competition assay. Briefly, (R/S)-LA was immobilized on sepharose beads via an amidation reaction to form an affinity matrix (abbreviated as iL; Fig. 1a). This affinity matrix can be incubated with cell lysate to pull down potential LA or LM target proteins and identify these targets via bottom-up proteomics. In a competition assay, free LA or LM were incubated with lysate at different concentrations before pulling down and quantifying target proteins. […] (Fig. 1b, see “Methods” for details). […] The lysate buffer used in this assay contains 1 mM DTT to mimic the intracellular reductive milieu and to reduce lipoic acid and LM. […] Additional competition assays performed in lung adenocarcinoma cell A549 lysate also identified HDAC1, HDAC2, and HDAC6 as targets (Supplementary Fig. 1b). Amongst the three cell lines tested, HDACs were the only confidently identified targets across the 1500–3000 proteins quantified in these assays. […] We validated the results by analogous pulldown competition assays using two other affinity matrices prepared via the immobilization of either the HDAC inhibitor Quisinostat (iQ) and an analog of the class IIa HDAC inhibitor Bürli’s 31[14] (iC)[12]. We have previously shown that these affinity matrices specifically bind to the active sites of HDACs and have used them for HDACi selectivity profiling. Indeed, binding of (R/S)-LA and (R/S)-LM to HDAC1, HDAC2, HDAC3, HDAC6, and, to a lesser extent, HDAC8 was confirmed in these assays (Supplementary Fig. 1c, d). No binding to class IIa HDACs or the recently discovered common HDAC inhibitor off-target MBLAC2 was observed (Supplementary Fig. 1e)[12]. […] This observation might reflect electrostatic repulsion between the HDAC10 active site gate-keeper glutamic acid residues[15],[16] and the terminal carboxylic acid of LA.
To assess the degree of protein depletion from lysates by the affinity matrix, a second pulldown (PDPD) with fresh beads was performed using the unbound protein fraction from the vehicle control flow through. The beads were washed (1 × 1 mL of lysis buffer without inhibitors and only 0.4% Igepal, 2 × 2 mL of lysis buffer without inhibitors and only 0.2% Igepal), and captured proteins were denatured with 8 M urea buffer, alkylated with 55 mM chloroacetamide and digested with Trypsin according to standard procedures. The resulting peptides were desalted on a C18 filter plate (Sep-Pak® tC18 µElution Plate, Waters), vacuum dried, and stored at −20 °C until LC–MSMS measurement.
For the competition assays, relative binding was calculated based on the protein intensity ratio to the DMSO control for every single inhibitor concentration. EC50 values were derived from a four-parameter log-logistic regression with variable slope (constrain: bottom > 0). The obtained EC50 values were multiplied with a protein-dependent correction factor (cf), resulting in the apparent Kd value (Kd^app). The correction factor is determined by calculating the ratio of the protein intensity of two consecutive pulldowns of the vehicle control sample[13]. Targets of the inhibitors were annotated manually according to published procedures[12],[46],[47]. […] Additionally, the number of unique peptides and MSMS counts per condition were taken into account. Positive target binding across several independent experiments performed with different cell lysates further substantiated our confidence for a true positive drug-target binding event.

As to `O=C(O)CCCCC1CCSS1` (racemic) [(R/S)-LA, (R/S)-lipoic acid], the “relative binding vs DMSO” value stood at 1.458 (log10 M -3.52288); 1.397 (log10 M -4); 1.757 (log10 M -4.52288); 1.642 (log10 M -5); 1.564 (log10 M -5.52288); 1.746 (log10 M -6). Also, the “relative binding vs DMSO” value is recorded as 1.164 (log10 M -6.52288) and 1.455 (log10 M -7).

The record behind these values is paper PMC10272112 (Nature Communications, 2023).
